Paper PMC11619344 (Antimicrobial Agents and Chemotherapy, 2024)
Converted amounts (≈) assume the structure as drawn.

What was measured:
Assay type in all cases: cell-based
[1] = tested on: ST258/KPC-35 mutant IMI 1.1; experiment: MIC, broth microdilution; settings: Klebsiella pneumoniae
[2] = tested on: ST512/KPC-31 mutant IMI 2.2; experiment: MIC, broth microdilution; settings: Klebsiella pneumoniae
[3] = tested on: ST258/KPC-35 mutant IMI 1.2; experiment: MIC, broth microdilution; settings: Klebsiella pneumoniae
[4] = tested on: ST258/KPC-35 mutant IMI 3.2; experiment: MIC, broth microdilution; settings: Klebsiella pneumoniae
[5] = tested on: ST512/KPC-31 mutant IMI 3.1; experiment: MIC, broth microdilution; settings: Klebsiella pneumoniae
[6] = tested on: ST258/KPC-35 mutant IMI 2.2; experiment: MIC, broth microdilution; settings: Klebsiella pneumoniae
[7] = tested on: ST258/KPC-35 mutant IMI 3.1; experiment: MIC, broth microdilution; settings: Klebsiella pneumoniae
[8] = tested on: ST512/KPC-31 mutant IMI 1.1; experiment: MIC, broth microdilution; settings: Klebsiella pneumoniae
[9] = tested on: ST258/KPC-35 mutant IMI 2.1; experiment: MIC, broth microdilution; settings: Klebsiella pneumoniae
[10] = tested on: ST512/KPC-31 mutant IMI 2.1; experiment: MIC, broth microdilution; settings: Klebsiella pneumoniae
[11] = tested on: K. pneumoniae ST512/KPC-31 (KPC-3 D179Y) parental clinical isolate; experiment: MIC, broth microdilution; settings: Klebsiella pneumoniae
[12] = tested on: K. pneumoniae ST258/KPC-35 (KPC-2 L169P) parental clinical isolate; experiment: MIC, broth microdilution; settings: Klebsiella pneumoniae
[13] = tested on: ST512/KPC-31 mutant IMI 1.2; experiment: MIC, broth microdilution; settings: Klebsiella pneumoniae
[14] = tested on: ST512/KPC-31 mutant IMI 3.2; experiment: MIC, broth microdilution; settings: Klebsiella pneumoniae
E. coli HB4 = experiment: MIC of recombinant strains; settings: Escherichia coli; E. coli HB4 (OmpC- and OmpF-deficient), no KPC
Method: (§1) 14.0 (www.eucast.org/clinical_breakpoints).
(§2) Recombinant strains were selected in 10 mg/L of gentamicin-LB agar plates. The β-lactam MICs were determined for the transformants according to the above-described methodology.

[15] = tested on: E. coli HB4 KPC-35 (KPC-2 L169P); experiment: MIC of recombinant strains; settings: Escherichia coli; E. coli HB4 expressing KPC-35 (KPC-2 L169P) in pUCP24
Method: as §1, §2

E. coli HB4 KPC-2 L169A = experiment: MIC of recombinant strains; settings: Escherichia coli, HB4KPC2L169A; E. coli HB4 expressing KPC-2 L169A in pUCP24
Method: as §1, §2

E. coli HB4 KPC-3 D179N = experiment: MIC of recombinant strains; settings: Escherichia coli, HB4KPC3D179N; E. coli HB4 expressing KPC-3 D179N in pUCP24
Method: as §1, §2

E. coli HB4 KPC-2 L169T = experiment: MIC of recombinant strains; settings: Escherichia coli, HB4KPC2L169T; E. coli HB4 expressing KPC-2 L169T in pUCP24
Method: as §1, §2

[16] = tested on: E. coli HB4 KPC-31 (KPC-3 D179Y); experiment: MIC of recombinant strains; settings: Escherichia coli; E. coli HB4 expressing KPC-31 (KPC-3 D179Y) in pUCP24
Method: as §1, §2

E. coli HB4 KPC-2 = experiment: MIC of recombinant strains; settings: Escherichia coli, HB4KPC2; E. coli HB4 expressing KPC-2 in pUCP24
Method: as §1, §2

E. coli HB4 KPC-3 = experiment: MIC of recombinant strains; settings: Escherichia coli, HB4KPC3; E. coli HB4 expressing KPC-3 in pUCP24
Method: as §1, §2

Compound | MIC [1] | MIC [2] | MIC [3] | MIC [4] | MIC [5] | MIC [6] | MIC [7] | MIC [8] | MIC [9] | MIC [10] | MIC [11] | MIC [12] | MIC [13] | MIC [14] | MIC (E. coli HB4) | MIC [15] | MIC (E. coli HB4 KPC-2 L169A) | MIC (E. coli HB4 KPC-3 D179N) | MIC (E. coli HB4 KPC-2 L169T) | MIC [16] | further results
NCC[C@H](O)C(=O)N[C@@H]1C[C@H](N)[C@@H](O[C@H]2O[C@H](CN)[C@@H](O)[C@H](O)[C@H]2O)[C@H](O)[C@H]1O[C@H]1O[C@H](CO)[C@@H](O)[C@H](N)[C@H]1O [AMI, amikacin] | > 32 mg/L | > 32 mg/L | > 32 mg/L | > 32 mg/L | > 32 mg/L | > 32 mg/L | > 32 mg/L | > 32 mg/L | > 32 mg/L | > 32 mg/L | > 32 mg/L | > 32 mg/L | > 32 mg/L | > 32 mg/L | – | – | – | – | – | – | –
C[C@H]1[C@H](NC(=O)/C(=N\OC(C)(C)C(=O)O)c2csc(N)n2)C(=O)N1S(=O)(=O)O [AZT, aztreonam] | > 16 mg/L | > 16 mg/L | > 16 mg/L | > 16 mg/L | > 16 mg/L | > 16 mg/L | > 16 mg/L | > 16 mg/L | > 16 mg/L | > 16 mg/L | – | – | > 16 mg/L | > 16 mg/L | ≤ 0.5 mg/L | 16 mg/L | 64 mg/L | 8 mg/L | 128 mg/L | 4 mg/L | MIC (E. coli HB4 KPC-2): 512 mg/L; MIC (E. coli HB4 KPC-3): 256 mg/L
CC(C)(O/N=C(\C(=O)N[C@@H]1C(=O)N2C(C(=O)[O-])=C(C[n+]3ccccc3)CS[C@H]12)c1csc(N)n1)C(=O)O [CAZ, ceftazidime] | 256 mg/L (≈ 468 µM) | > 256 mg/L | 256 mg/L (≈ 468 µM) | 128 mg/L (≈ 234 µM) | > 256 mg/L | 128 mg/L (≈ 234 µM) | 64 mg/L (≈ 117 µM) | > 256 mg/L | 128 mg/L (≈ 234 µM) | > 256 mg/L | > 256 mg/L | > 256 mg/L | > 256 mg/L | > 256 mg/L | 1 mg/L | > 64 mg/L | > 64 mg/L | > 64 mg/L | > 64 mg/L | > 64 mg/L | MIC (E. coli HB4 KPC-2): > 64 mg/L; MIC (E. coli HB4 KPC-3): > 64 mg/L
C[C@@H](O)[C@H]1C(=O)N2C(C(=O)O)=C(S[C@@H]3CN[C@H](C(=O)Nc4cccc(C(=O)O)c4)C3)[C@H](C)[C@H]12 [ETP, ertapenem] | > 8 mg/L | > 8 mg/L | > 8 mg/L | > 8 mg/L | > 8 mg/L | > 8 mg/L | > 8 mg/L | > 8 mg/L | > 8 mg/L | > 8 mg/L | > 8 mg/L | > 8 mg/L | > 8 mg/L | > 8 mg/L | – | – | – | – | – | – | –
CO/N=C(\C(=O)N[C@@H]1C(=O)N2C(C(=O)[O-])=C(C[N+]3(C)CCCC3)CS[C@H]12)c1csc(N)n1 [FEP, cefepime] | > 16 mg/L | > 16 mg/L | > 16 mg/L | > 16 mg/L | > 16 mg/L | > 16 mg/L | > 16 mg/L | > 16 mg/L | > 16 mg/L | > 16 mg/L | – | – | > 16 mg/L | > 16 mg/L | ≤ 0.5 mg/L | 64 mg/L | 64 mg/L | 16 mg/L | 128 mg/L | 32 mg/L | MIC (E. coli HB4 KPC-2): 256 mg/L; MIC (E. coli HB4 KPC-3): 128 mg/L
CNC(C)C1CCC(N)C(OC2C(N)CC(N)C(OC3OCC(C)(O)C(NC)C3O)C2O)O1 (stereo not shown) [GEN, gentamicin] | 4 mg/L (≈ 8.38 µM) | 8 mg/L (≈ 16.8 µM) | 4 mg/L (≈ 8.38 µM) | 4 mg/L (≈ 8.38 µM) | 4 mg/L (≈ 8.38 µM) | 4 mg/L (≈ 8.38 µM) | 4 mg/L (≈ 8.38 µM) | 4 mg/L (≈ 8.38 µM) | 4 mg/L (≈ 8.38 µM) | 4 mg/L (≈ 8.38 µM) | 4 mg/L (≈ 8.38 µM) | ≤ 2 mg/L | 8 mg/L (≈ 16.8 µM) | 4 mg/L (≈ 8.38 µM) | – | – | – | – | – | – | –
C[C@H]1COc2c(N3CCN(C)CC3)c(F)cc3c(=O)c(C(=O)O)cn1c23 [LEV, levofloxacin] | > 8 mg/L | > 8 mg/L | > 8 mg/L | > 8 mg/L | > 8 mg/L | > 8 mg/L | > 8 mg/L | > 8 mg/L | > 8 mg/L | > 8 mg/L | > 8 mg/L | > 8 mg/L | > 8 mg/L | > 8 mg/L | – | – | – | – | – | – | –
C[C@@H](O)[C@H]1C(=O)N2C(C(=O)O)=C(S[C@@H]3CN[C@H](C(=O)N(C)C)C3)[C@H](C)[C@H]12 [MEM, meropenem] | > 64 mg/L | > 64 mg/L | > 64 mg/L | 64 mg/L (≈ 167 µM) | 32 mg/L (≈ 83.4 µM) | > 64 mg/L | 64 mg/L (≈ 167 µM) | > 64 mg/L | > 64 mg/L | > 64 mg/L | 4 mg/L (≈ 10.4 µM) | 4 mg/L (≈ 10.4 µM) | > 64 mg/L | 32 mg/L (≈ 83.4 µM) | ≤ 0.06 mg/L | 2 mg/L | 16 mg/L | 0.25 mg/L | 16 mg/L | 0.5 mg/L | MIC (E. coli HB4 KPC-2): > 64 mg/L; MIC (E. coli HB4 KPC-3): > 64 mg/L
NC[C@H]1O[C@H](O[C@H]2[C@H](O)[C@@H](O[C@H]3O[C@H](CO)[C@@H](O)[C@H](N)[C@H]3O)[C@H](N)C[C@@H]2N)[C@H](N)C[C@@H]1O [TOB, tobramycin] | > 8 mg/L | > 8 mg/L | > 8 mg/L | > 8 mg/L | > 8 mg/L | > 8 mg/L | > 8 mg/L | > 8 mg/L | > 8 mg/L | > 8 mg/L | > 8 mg/L | > 8 mg/L | > 8 mg/L | > 8 mg/L | – | – | – | – | – | – | –
